Source: patent US10669238B2, “Irreversible bruton's tyrosine kinase inhibitor” (HEFEI INSTITUTES OF PHYSICAL SCIENCE, CHINESE ACADEMY OF …, priority 2016, dated 2020)

Molecular target: BTK protein kinase (Homo sapiens, UniProt Q06187)
Test: In vitro enzymatic activity against BTK (ADP-Glo)
Type: biochemical
Settings: compound with BTK 4 hours at room temperature, ATP 10 μM, 37° C. 1 hour
Protocol: In vitro enzymatic activity of the compounds against BTK was determined in a experimental assay of in vitro enzymatic activity using […] kit (purchased from Progema, USA).
9 μL of BTK protein kinase (at a concentration of 1.5 ng/μL) was used to react with compounds (1 μL) shown in the following table that were diluted three times in gradient at room temperature for 4 hours (the final concentration of the compound being 10 μM, 3 μM, 1 μM, 0.3 μM, 0.1 μM, 0.03 μM, 0.01 μM, 0.003 μM);
2 μL of ATP and 3 μL of the substrate Poly(4:1 Glu, Tyr)Peptide (Promega, USA) (the final concentrations being 10 μM and 0.2 μg/μL, respectively) were added to allow reaction at 37° C. for 1 hour;
5 μL of BTK kinase solution after reaction was taken and added into 5 μL of ADP-Glo™ (Promega, USA) reagent to allow reaction at room temperature for 40 mins so as to terminate the kinase reaction and exhaust the remaining ATP;
10 μL kinase detecting reagent was added to convert ADP to ATP, and newly synthesized ATP was detected using coupled luciferase/[…] reaction, then the IC50 values were calculated by using a plotting method based on the Envision reading.

BTK protein kinase, sequence (Q06187 whole entry): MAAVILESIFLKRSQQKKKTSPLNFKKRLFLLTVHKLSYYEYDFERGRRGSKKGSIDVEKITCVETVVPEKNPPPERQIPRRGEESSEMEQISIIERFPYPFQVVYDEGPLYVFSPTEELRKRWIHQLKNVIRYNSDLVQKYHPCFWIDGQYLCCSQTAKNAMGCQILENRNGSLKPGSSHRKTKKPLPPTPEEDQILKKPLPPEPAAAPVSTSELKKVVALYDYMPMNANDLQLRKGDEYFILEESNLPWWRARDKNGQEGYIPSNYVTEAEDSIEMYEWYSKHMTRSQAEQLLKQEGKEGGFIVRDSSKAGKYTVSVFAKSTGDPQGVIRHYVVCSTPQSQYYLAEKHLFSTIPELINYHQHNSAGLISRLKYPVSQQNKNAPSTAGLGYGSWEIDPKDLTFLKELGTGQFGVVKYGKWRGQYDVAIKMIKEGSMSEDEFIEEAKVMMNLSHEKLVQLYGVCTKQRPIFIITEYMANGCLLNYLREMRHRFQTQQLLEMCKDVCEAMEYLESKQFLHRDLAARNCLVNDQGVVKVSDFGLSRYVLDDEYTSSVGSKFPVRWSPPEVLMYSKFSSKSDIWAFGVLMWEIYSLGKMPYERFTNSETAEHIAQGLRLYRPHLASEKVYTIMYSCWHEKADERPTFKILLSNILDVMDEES

IC50 (values in nM) [nM]	Compound	other results
9.9	C=CC(=O)Nc1cc(Nc2cc(-c3cccc(NC(=O)c4cc5c(s4)CCCC5)c3C)cn(C)c2=O)ccc1-n1cccn1 [Compound 86, N-(3-(5-((3-acrylamide-4-(1H-pyrazol-1-yl)phenyl)amino)-1-methyl-6-oxo-1,6-dihydropyridin-3-yl)-2-methylphenyl)-4,5,6,7-tetrahydrobenzo[b]thiophene-2-carboxamide]	
82	C=CC(=O)Nc1cc(Nc2cc(-c3cccc(NC(=O)c4cc5c(s4)CCCC5)c3C)cn(C)c2=O)ccc1N1CCN(C(C)=O)CC1 [Compound 79, N-(3-(5-((4-(4-acetylpiperazin-1-yl)-3-acrylamidephenyl)amino)-1-methyl-6-oxo-1,6-dihydropyridin-3-yl)-2-methylphenyl)-4,5,6,7-tetrahydrobenzo[b]thiophene-2-carboxamide]	
41	C=CC(=O)Nc1cc(Nc2cc(-c3cccc(NC(=O)c4ccc5c(c4)CCCC5)c3C)cn(C)c2=O)ccc1C(=O)N1CCOCC1 [Compound 43, N-(3-(5-((3-acrylamide-4-(morpholin-4-carbonyl)phenyl)amino)-1-methyl-6-oxo-1,6-dihydropyridin-3-yl)-2-methylphenyl)-5,6,7,8-tetrahydronaphthalene-2-carboxamide]	
32.6	C#CC(=O)Nc1cc(C(=O)N2CCOCC2)ccc1Nc1cc(-c2cccc(NC(=O)c3ccc(C(C)(C)C)cc3)c2C)cn(C)c1=O [Compound 4, N-(3-(5-((2-propynamide-4-(morpholin-4-carbonyl)phenyl)amino)-1-methyl-6-oxo-1,6-dihydropyridin-3-yl)-2-methylphenyl)-4-(tert-butyl)benzamide]	
262	C=CC(=O)Nc1cc(Nc2cc(-c3cccc(NC(=O)c4ccc(N5CCOCC5)cc4)c3C)cn(C)c2=O)ccc1C(=O)N1CCOCC1 [Compound 15, N-(3-(5-((3-acrylamide-4-(morpholin-4-carbonyl)phenyl)amino)-1-methyl-6-oxo-1,6-dihydropyridin-3-yl)-2-methylphenyl)-4-morpholinbenzoylamide]	
	Cc1c(NC(=O)c2ccc(C(C)(C)C)cc2)cc(NC(=O)CCl)cc1-c1cc(Nc2ccc(C(=O)N3CCOCC3)cc2)c(=O)n(C)c1 [Compound 7, 4-(tert-butyl)-N-(5-(2-chloroacetamide)-2-methyl-3-(1-methyl-5-((4-(morpholin-4-carbonyl)phenyl)amino)-6-oxo-1,6-dihydropyridin-3-yl)phenyl)benzoylamide]	IC50 (values given in μM): 1220 nM
104	C=CC(=O)Nc1cc(Nc2cc(-c3cccc(NC(=O)c4ccc(C(F)(F)F)cc4)c3C)cn(C)c2=O)ccc1C(=O)N1CCOCC1 [Compound 60, N-(3-(5-((3-acrylamide-4-(morpholin-4-carbonyl)phenyl)amino)-1-methyl-6-oxo-1,6-dihydropyridin-3-yl)-2-methylphenyl)-4-(trifluoromethyl)benzoylamide]	
88.9	C=CC(=O)Nc1cc(Nc2cc(-c3cccc(NC(=O)c4ccc(C)cc4)c3C)cn(C)c2=O)ccc1C(=O)N1CCOCC1 [Compound 9, N-(3-(5-((3-acrylamide-4-(morpholin-4-carbonyl)phenyl)amino)-1-methyl-6-oxo-1,6-dihydropyridin-3-)-2-methylphenyl)-4-(methyl)benzoylamide]	
	C=CC(=O)Nc1cc(Nc2cc(-c3cccc(NC(=O)c4cc5ccccc5s4)c3C)cn(C)c2=O)ccc1N1CCC(OC)CC1 [Compound 87, N-(3-(5-((3-acrylamide-4-(4-methoxypiperidin-1-yl)phenyl)amino)-1-methyl-6-oxo-1,6-dihydropyridin-3-yl)-2-methylphenyl)benzo[b]thiophene-2-carboxamide]	IC50 (value printed in nm): 126 nM
164	C=CC(=O)Nc1cc(Nc2cc(-c3cccc(NC(=O)c4ccc(CC)cc4)c3C)cn(C)c2=O)ccc1C(=O)N1CCOCC1 [Compound 62, N-(3-(5-((3-acrylamide-4-(morpholin-4-carbonyl)phenyl)amino)-1-methyl-6-oxo-1,6-dihydropyridin-3-yl)-2-methylphenyl)-4-ethylbenzoylamide]	
101	C=CC(=O)Nc1cc(Nc2cc(-c3cccc(NC(=O)c4cc5c(s4)CCCC5)c3C)cn(C)c2=O)ccc1N(C)C [Compound 77, N-(3-(5-((3-acrylamide-4-(dimethylamino)phenyl)amino)-1-methyl-6-oxo-1,6-dihydropyridin-3-yl)-2-methylphenyl)-4,5,6,7-tetrahydrobenzo[b]thiophene-2-carboxamide]	
22	C=CC(=O)Nc1cc(Nc2cc(-c3cccc(NC(=O)c4cc5ccccc5s4)c3C)cn(C)c2=O)ccc1C(=O)N1CCOCC1 [Compound 68, N-(3-(5-((3-acrylamide-4-(morpholin-4-carbonyl)phenyl)amino)-1-methyl-6-oxo-1,6-dihydropyridin-3-yl)-2-methylphenyl)benzo[b]thiophene-2-carboxamide]	
339	CCC(=O)Nc1cc(Nc2cc(-c3cccc(NC(=O)c4ccc(C(C)(C)C)cc4)c3C)cn(C)c2=O)ccc1C(=O)N(C)C [Compound 30, 2-propanamide-4-((5-(3-(4-(tert-butyl)benzamide)-2-methylphenyl)-1-methyl-2-oxo-1,2-dihydropyridin-3-yl)amino)-N,N-dimethylbenzoylamide]	
162	C=CC(=O)Nc1cc(Nc2cc(-c3cccc(NC(=O)c4ccc(C(C)(C)C)cc4)c3C)cn(C)c2=O)ccc1C(=O)OC [Compound 49, 2-acrylamide-4-((5-(3-(4-(tert-butyl)benzamide)-2-methylphenyl)-1-methyl-2-oxo-1,2-dihydropyridin-3-yl)amino)methyl benzoate]	
197	Cc1c(NC(=O)c2ccc3c(c2)OCO3)cccc1-c1cc(Nc2ccc(C(=O)N3CCOCC3)c(NC(=O)CCl)c2)c(=O)n(C)c1 [Compound 19, N-(3-(5-((3-chloroacetamide-4-(morpholin-4-carbonyl)phenyl)amino)-1-methyl-6-oxo-1,6-dihydropyridin-3-yl)-2-methylphenyl)-benzo[d][1,3]dioxolanyl-5-carboxamide]	
	Cc1c(NC(=O)c2ccc(C(C)(C)C)cc2)cccc1-c1cc(Nc2cccc(NC(=O)CCl)c2)c(=O)n(C)c1 [Compound 22, N-(3-(5-((3-chloroacetamidephenyl)amino)-1-methyl-6-oxo-1,6-dihydropyridin-3-yl)-2-methylphenyl)-4-(tert-butyl)benzamide]	IC50 (values given in μM): 5530 nM
24	Cc1c(NC(=O)c2ccc(N(C)C)cc2)cccc1-c1cc(Nc2ccc(C(=O)N3CCOCC3)c(NC(=O)CCl)c2)c(=O)n(C)c1 [Compound 36, N-(3-(5-((3-chloroacetamide-4-(morpholin-4-carbonyl)phenyl)amino)-1-methyl-6-oxo-1,6-dihydropyridin-3-yl)-2-methylphenyl)-4-(dimethylamino)benzoylamide]	
6.5	C=CC(=O)Nc1cc(Nc2cc(-c3cccc(NC(=O)c4cc5ccccc5s4)c3C)cn(C)c2=O)ccc1N1CCN(C(C)C)CC1 [Compound 90, N-(3-(5-((3-acrylamide-4-(4-isopropylpiperazin-1-yl)phenyl)amino)-1-methyl-6-oxo-1,6-dihydropyridin-3-yl)-2-methylphenyl)benzo[b]thiophene-2-carboxamide]	
119	C=CC(=O)Nc1cc(Nc2cc(-c3cccc(NC(=O)c4cc5c(s4)CCCC5)c3C)cn(C)c2=O)ccc1N1CCOCC1 [Compound 78, N-(3-(5-((3-acrylamide-4-morpholinophenyl)amino)-1-methyl-6-oxo-1,6-dihydropyridin-3-yl)-2-methylphenyl)4,5,6,7-tetrahydrobenzo[b]thiophene-2-carboxamide]	
180	C=CC(=O)Nc1cc(Nc2cc(-c3cccc(NC(=O)c4ccc(C5CC5)cc4)c3C)cn(C)c2=O)ccc1N1CCN(C)CC1 [Compound 72, N-(3-(5-((3-acrylamide-4-(4-methylpiperazin-1-yl)phenyl)amino)-1-methyl-6-oxo-1,6-dihydropyridin-3-yl)-2-methylphenyl)-4-cyclopropylbenzoylamide]	
28.9	C=CC(=O)Nc1cc(Nc2cc(-c3cccc(NC(=O)c4cc5ccccc5s4)c3C)cn(C)c2=O)ccc1N1CCN(C)CC1 [Compound 81, N-(3-(5-((3-acrylamide-4-(4-methylpiperazin-1-yl)phenyl)amino)-1-methyl-6-oxo-1,6-dihydropyridin-3-yl)-2-methylphenyl)-benzo[b]thiophene-2-carboxamide]	
223	Cc1ccc(Nc2cc(-c3cccc(NC(=O)c4ccc(C(C)(C)C)cc4)c3C)cn(C)c2=O)cc1NC(=O)CCl [Compound 26, N-(3-(5-((3-chloroacetamide-4-methylphenyl)amino)-1-methyl-6-oxo-1,6-dihydropyridin-3-yl)-2-methylphenyl)-4-(tert-butyl)benzamide]	
144	C=CC(=O)Nc1cc(Nc2cc(-c3cccc(NC(=O)c4ccc(C(C)(C)C)cc4)c3C)cn(C)c2=O)ccc1C(=O)N1CCN(C)CC1 [Compound 3, N-(3-(5-((3-acrylamide-4-(4-methylpiperazin-1-carbonyl)phenyl)amino)-1-methyl-6-oxo-1,6-dihydropyridin-3-yl)-2-methylphenyl)-4-(tert-butyl)benzamide]	
